Among the data in patent US8048892B2, “Azaquinolone based compounds exhibiting prolyl hydroxylase inhibitory activity, compositions, and uses thereof” (Amgen Inc., priority 2006, dated 2011) are IC50 values, retold here.

Structures can show the parent of a compound that is named as a salt.

Chain of HIF PHD2 (Q9GZT9 whole entry): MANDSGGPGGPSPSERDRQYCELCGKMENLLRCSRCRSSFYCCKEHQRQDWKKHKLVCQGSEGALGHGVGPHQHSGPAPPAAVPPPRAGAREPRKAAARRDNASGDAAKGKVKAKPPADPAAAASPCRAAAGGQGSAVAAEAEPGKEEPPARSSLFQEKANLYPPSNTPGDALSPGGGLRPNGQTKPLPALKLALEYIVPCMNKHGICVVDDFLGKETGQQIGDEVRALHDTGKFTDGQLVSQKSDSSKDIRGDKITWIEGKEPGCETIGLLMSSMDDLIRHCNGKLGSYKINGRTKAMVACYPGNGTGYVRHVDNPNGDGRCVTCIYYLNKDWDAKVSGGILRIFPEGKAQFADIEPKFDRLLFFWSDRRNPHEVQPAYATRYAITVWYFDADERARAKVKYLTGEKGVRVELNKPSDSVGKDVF

The target of the assay is HIF PHD2 (Homo sapiens, UniProt Q9GZT9). The assay can be described thus: PHD2 inhibition assay (TR-FRET, VCB-Eu detection of hydroxylated P564-HIF1α peptide). The settings on record: 2 nM PHD2, 100 nM P564-HIF1α peptide, 0.25 μM 2-oxoglutarate. Format: biochemical. As for the experimental part:
Inhibition of HIF PHD2 activity was quantified utilizing the TR-FRET technology. HIF PHD2 catalyzes a hydroxyl modification on the proline residue of the P564-HIF1α peptide substrate (Biotin-DLEMLAPYIPMDDDFQL (SEQ ID NO: 7)) resulting in recognition and binding of the europylated Von Hippel-Lindau protein (pVHL), elongin B and elongin C heterotrimeric (VCB-Eu) complex.
The PHD2 inhibition assay was executed by addition of freshly dissolved FeCl2 to 178.57 μM (100 μM final concentration) in PHD2 Reaction Buffer containing 30 mM MES, pH 6, 10 mM NaCl, 0.25% Brij-35, 0.01% BSA, and 1% DMSO. 28 μL of the iron solution and 2 μL of inhibitor compounds serially diluted in 100% DMSO (5% DMSO final) were added to black polypropylene 96-well microtiter plates. To that, 10 μL of 10 nM PHD2 (2 nM final) was added to all wells of the plate except for the 8 wells of column 12 (LO control), and allowed to incubate at room temperature on the shaker for one hour. Column 6 was the HI control containing PHD2 enzyme and 5% DMSO vehicle, but no inhibitor compound. To initiate the PHD2 enzymatic reaction, 10 μL of a solution containing 500 nM P564-HIF1α peptide (100 nM final), 10 mM ascorbic acid (2 mM final), and 1.25 μM 2-oxoglutarate (α-ketoglutarate; 0.25 μM final) in PHD2 Reaction Buffer was added to all wells of the plate and allowed to incubate on the shaker at room temperature for one hour.
The reaction was terminated by addition of 25 μL TR-FRET Buffer (50 mM TRIS-HCl, pH 9, 100 mM NaCl, 0.05% BSA, and 0.5% Tween-20) containing 150 mM succinate (product inhibitor; 50 mM final), 75 nM streptavidin-APC (25 nM final), and 7.5 nM VCB-Eu (2.5 nM final). The TR-FRET detection reagents were placed on a shaker for 1 hour to reach binding equilibrium before reading on the Discovery platform (PerkinElmer). Europium is excited at 315 nm and phosphoresces at 615 nm with a large Stoke's shift. APC, in turn, emits at 655 nm upon excitation at 615 nm. The TR-FRET signal is measured as the ratio of the APC 655 nm signal divided by the internal europium reference 615 nm emission signal.
The POC (percentage of control) was determined by comparing the signal from hydroxylated peptide substrate in the enzyme reaction containing inhibitor compound with that from PHD2 enzyme with DMSO vehicle alone (HI control), and no enzyme (LO control). POC was calculated using the formula: % control (POC)=(cpd−average LO)/(average HI−average LO)*100. Data (consisting of POC and inhibitor concentration in μM) was fitted to a 4-parameter equation (y=A+((B−A)/(1+((x/C)^D))), where A is the minimum y (POC) value, B is the maximum y (POC), C is the x (cpd concentration) at the point of inflection and D is the slope factor) using a Levenburg-Marquardt non-linear regression algorithm.
Regarding `COc1ncccc1-c1cnc2c(c1)c(O)c(C(=O)NCC(=O)O)c(=O)n2C` [Example 53, N-((4-Hydroxy-1-methyl-6-(2-(methyloxy)-3-pyridinyl)-2-oxo-1,2-dihydro-1,8-naphthyridin-3-yl)carbonyl)glycine], the IC50 is < 50 nM.

`Cn1c(=O)c(C(=O)NCC(=O)O)c(O)c2cc(Br)c(C(F)(F)F)nc21` [Example 94, 2-(6-Bromo-4-hydroxy-1-methyl-2-oxo-7-(trifluoromethyl)-1,2-dihydro-1,8-naphthyridine-3-carboxamido)acetic acid]: the IC50 was < 50 nM.

With `Cn1c(=O)c(C(=O)NCC(=O)O)c(O)c2cc(C3CCCO3)c(C(F)(F)F)nc21` (single isomer, unassigned) [Example 101, (R)-2-(4-Hydroxy-1-methyl-2-oxo-6-(tetrahydrofuran-2-yl)-7-(trifluoromethyl)-1,2-dihydro-1,8-naphthyridine-3-carboxamido)acetic acid or (S)-2-(4-Hydroxy-1-methyl-2-oxo-6-(tetrahydrofuran-2-yl)-7-(trifluoromethyl)-1,2-dihydro-1,8-naphthyridine-3-carboxamido)acetic acid], the IC50 was < 50 nM.

As to `Cn1c(=O)c(C(=O)NCC(=O)O)c(O)c2cc(C#CC3CC3)cnc21` [Example 82, 2-(6-(2-Cyclopropylethynyl)-4-hydroxy-1-methyl-2-oxo-1,2-dihydro-1,8-naphthyridine-3-carboxamido)acetic acid], the IC50 was < 50 nM.

Compound `C#Cc1cnc2c(c1)c(O)c(C(=O)NCC(=O)O)c(=O)n2C` [Example 80, 2-(6-Ethynyl-4-hydroxy-1-methyl-2-oxo-1,2-dihydro-1,8-naphthyridine-3-carboxamido)acetic acid] registered an IC50 of 100 to 500 nM.

Regarding `Cn1c(=O)c(C(=O)NCC(=O)O)c(O)c2ccc(C(F)(F)F)nc21` [Example 86, 2-(4-Hydroxy-1-methyl-2-oxo-7-(trifluoromethyl)-1,2-dihydro-1,8-naphthyridine-3-carboxamido)acetic acid], the half-inhibitory concentration (IC50) was < 50 nM.

With `CC(C)C#Cc1cnc2c(O)c(C(=O)NCC(=O)O)c(=O)n(C)c2c1` [Example 9, 2-(4-Hydroxy-1-methyl-7-(3-methylbut-1-ynyl)-2-oxo-1,2-dihydro-1,5-naphthyridine-3-carboxamido)acetic acid], the IC50 is < 50 nM.

On to `C[C@H](NC(=O)c1c(O)c2ccc(C(F)(F)F)nc2[nH]c1=O)C(=O)O` [Example 88, (S)-2-(4-Hydroxy-2-oxo-7-(trifluoromethyl)-1,2-dihydro-1,8-naphthyridine-3-carboxamido)propanoic acid], for which the concentration for half-maximal inhibition (IC50) is 100 to 500 nM.

Consider `Cn1c(=O)c(C(=O)NCC(=O)O)c(O)c2cc(-c3cccc(C(F)(F)F)n3)cnc21` [Example 32, N-((4-Hydroxy-1-methyl-2-oxo-6-(6-(trifluoromethyl)-2-pyridinyl)-1,2-dihydro-1,8-naphthyridin-3-yl)carbonyl)glycine], for which the IC50 fell in the range of 50 to 100 nM.

On to `Cn1c(=O)c(C(=O)NCC(=O)O)c(O)c2cc(Cl)ncc21` [Example 111, 2-(6-Chloro-4-hydroxy-1-methyl-2-oxo-1,2-dihydro-1,7-naphthyridine-3-carboxamido)acetic acid], for which the IC50 is < 50 nM.

With `CCCCc1cnc2c(c1)c(O)c(C(=O)NCC(=O)O)c(=O)n2C` [Example 72, 2-(6-Butyl-4-hydroxy-1-methyl-2-oxo-1,2-dihydro-1,8-naphthyridine-3-carboxamido)acetic acid], the IC50 fell in the range of 50 to 100 nM.

Regarding `Cn1c(=O)c(C(=O)NCC(=O)O)c(O)c2cc(-c3ccnc(F)c3)cnc21` [Example 65, 2-(6-(2-Fluoropyridin-4-yl)-4-hydroxy-1-methyl-2-oxo-1,2-dihydro-1,8-naphthyridine-3-carboxamido)acetic acid], the half-maximal inhibitory concentration (IC50) is < 50 nM.

`Cn1c(=O)c(C(=O)NCC(=O)O)c(O)c2ccc(-c3cccnc3)nc21` [Example 17, N-((4-Hydroxy-1-methyl-2-oxo-7-(3-pyridinyl)-1,2-dihydro-1,8-naphthyridin-3-yl)carbonyl)glycine]: the IC50 is < 50 nM.

Take `Cn1c(=O)c(C(=O)NCC(=O)O)c(O)c2cc(-c3ccccc3)c(C(F)(F)F)nc21` [Example 90, 2-(4-Hydroxy-1-methyl-2-oxo-6-phenyl-7-(trifluoromethyl)-1,2-dihydro-1,8-naphthyridine-3-carboxamido)acetic acid]: the IC50 is < 50 nM.

With `Cn1c(=O)c(C(=O)NCC(=O)O)c(O)c2ccc(Br)nc21` [Example 11, 2-(7-Bromo-4-hydroxy-1-methyl-2-oxo-1,2-dihydro-1,8-naphthyridine-3-carboxamido)acetic acid], the IC50 is < 50 nM.

`C[C@H](NC(=O)c1c(O)c2cc(-c3ccccc3)cnc2n(C)c1=O)C(=O)O` [Example 74, (S)-2-(4-Hydroxy-1-methyl-2-oxo-6-phenyl-1,2-dihydro-1,8-naphthyridine-3-carboxamido)propanoic acid] had an IC50 of 100 to 500 nM.

For `Cn1c(=O)c(C(=O)NCC(=O)O)c(O)c2cc(CCC3CC3)cnc21` [Example 81, 2-(6-(2-Cyclopropylethyl)-4-hydroxy-1-methyl-2-oxo-1,2-dihydro-1,8-naphthyridine-3-carboxamido)acetic acid], the IC50 was < 50 nM.

`COc1ccc(-c2cnc3c(c2)c(O)c(C(=O)NCC(=O)O)c(=O)n3C)cn1` [Example 52, N-((4-Hydroxy-1-methyl-6-(6-(methyloxy)-3-pyridinyl)-2-oxo-1,2-dihydro-1,8-naphthyridin-3-yl)carbonyl)glycine] displayed an IC50 of 100 to 500 nM.

For the compound `Cn1c(=O)c(C(=O)NCC(=O)O)c(O)c2cc(C3=CCCCC3)c(C(F)(F)F)nc21` [Example 96, 2-(6-Cyclohexenyl-4-hydroxy-1-methyl-2-oxo-7-(trifluoromethyl)-1,2-dihydro-1,8-naphthyridine-3-carboxamido)acetic acid], the IC50 is < 50 nM.

As to `Cc1nc(F)ccc1-c1cnc2c(c1)c(O)c(C(=O)NCC(=O)O)c(=O)n2C` [Example 47, 2-(6-(6-Fluoro-2-methylpyridin-3-yl)-4-hydroxy-1-methyl-2-oxo-1,2-dihydro-1,8-naphthyridine-3-carboxamido)acetic acid], the IC50 was < 50 nM.

With `CN1CC=C(c2cc3c(O)c(C(=O)NCC(=O)O)c(=O)n(C)c3cn2)CC1` [Example 116, 2-(4-Hydroxy-1-methyl-6-(1-methyl-1,2,3,6-tetrahydropyridin-4-yl)-2-oxo-1,2-dihydro-1,7-naphthyridine-3-carboxamido)acetic acid, Trifluoroacetic acid salt], the IC50 is < 50 nM.

In the case of `Cn1c(=O)c(C(=O)NCC(=O)O)c(O)c2cc(-c3cccnc3)c(C(F)(F)F)nc21` [Example 91, 2-(4-Hydroxy-1-methyl-2-oxo-6-(pyridin-3-yl)-7-(trifluoromethyl)-1,2-dihydro-1,8-naphthyridine-3-carboxamido)acetic acid], the IC50 is < 50 nM.

For `Cn1c(=O)c(C(=O)NCC(=O)O)c(O)c2cc(C3CCCCC3)c(C(F)(F)F)nc21` [Example 95, 2-(6-Cyclohexyl-4-hydroxy-1-methyl-2-oxo-7-(trifluoromethyl)-1,2-dihydro-1,8-naphthyridine-3-carboxamido)acetic acid], the IC50 is 100 to 500 nM.

Regarding `C[C@H](NC(=O)c1c(O)c2cc(I)cnc2n(C)c1=O)C(=O)O` [Example 73, (S)-2-(4-Hydroxy-6-iodo-1-methyl-2-oxo-1,2-dihydro-1,8-naphthyridine-3-carboxamido)propanoic acid], the 50% inhibitory concentration (IC50) was < 50 nM.

In the case of `Cn1c(=O)c(C(=O)NCC(=O)O)c(O)c2cc(Cl)[n+]([O-])cc21` [Example 123, 2-(6-Chloro-4-hydroxy-1-methyl-2-oxo-1,2-dihydro-1,7-naphthyridine-3-carboxamido)acetic acid, N-oxide], the IC50 is < 50 nM.

As to `Cn1c(=O)c(C(=O)NCC(=O)O)c(O)c2c(Cl)nccc21` [Example 131, 2-(5-Chloro-4-hydroxy-1-methyl-2-oxo-1,2-dihydro-1,6-naphthyridine-3-carboxamido)acetic acid], the IC50 was < 50 nM.
